According to US6642257B2, “Agents for treating neuropathic pain” (Mochida Pharmaceutical Co., Ltd., priority 1999, dated 2003):
pIC50: −log10 of the molar value. Where a name gives a salt, the structure may show the parent alone. Read-outs that look alike come from different tables or passages of the source. Marks after values point to notes of the source that are not given here. Each block holds one compound with its values, some of them ahead of it.

How the values were obtained:
[1] = system: formalin-induced nociceptive response; assay: Formalin-induced nociceptive response in rats; assay type: in vivo, rat; settings: for inhibition in vivo at 10 mg/kg: Rattus norvegicus, po, 10 mg/kg orally 30 minutes before formalin
Experimental: Specifically, 25 μL of 0.5% formalin solution was subcutaneously injected into the left foot pad of the rat, and then each behavior of the rat consisting of the licking or biting of the pad immediately following the injection was checked with a stopwatch for its duration, and its cumulative duration was recorded at five minute intervals. […] The test compound was orally applied to the rat 30 minutes before the subcutaneous injected of formalin. Then, the inhibitory effect of the test compound on the nociceptive response induced by the formalin injection was calculated according to the following formula. To mention, for illustration, the inhibitory effect of carbamazepine, an agent to serve as a comparative example, if it is orally applied at 50 mg/kg, it inhibits the first-phase response by 52%, while it inhibits the second-phase response by 59%. Percent inhibition (%) -[([…]]×100 wherein […] is the response time (sec) of the test group which received formalin and the test compound, while PRcontol is the response time of the control group which received formalin alone.

[2] = biological target: batrachotoxin receptors in the synaptosome from the rat brain (sodium channel); assay: Inhibition of the binding of batrachotoxin to receptors in rat brain synaptosome; settings: 1.5 nM tritiated batrachotoxin A20-alfa-benzoate, 100 μM veratridine, 37° C., 30 minutes
[3] = system: response threshold to a mechanical stimulus; assay: Rat model made by loosely constricting the sciatic nerve (Bennett), von Frey threshold; assay type: in vivo; settings: constriction, 1 hour after dosing
Experimental: (“Pain,” 33:87, 1988). Specifically, the rat was anesthetized with i.p. injection of pentobarbital sodium at 40 mg/kg; the overlying skin was cut open; and the left biceps femoris muscle was bluntly separated. The sciatic nerve was isolated from surrounding tissues; it was gently constricted at four sites about 1 mm apart from each other by the use of surgical gut sutures (4-0); the operated part was closed; and the rat was returned to its cage for further feeding. For the rat belonging to the sham-surgery group, the same operation was performed except that the sciatic nerve was left untouched. Two weeks after the surgery, the response threshold to a mechanical stimulus consisting of touch with a von Frey filament was determined. The test proceeded as follows: the test compound dissolved or suspended in a solvent (0.5% aqueous solution of hydroxypropylmethyl cellulose) was orally applied to the rat having the sciatic nerve constricted; one hour later, von Frey hairs were applied against the foot pad (spots ranging from heel to the mid-point of foot) one after another in an ascending order of their stiffness; if the rat raises its foot when a certain von Frey hair was applied, the stimulus intensity of that hair was taken as the response threshold (maximum stimulus intensity being 28.84g).

[4] = system: transient sodium current in neuroblastoma cells; assay: Voltage-clamp, transient sodium current; settings: at 53 μM
[5] = system: isolated myocardial cells; assay: Inhibition of veratrine-induced contracture of isolated myocardial cells; assay type: cell-based; settings: Rattus norvegicus; veratrine 100 μg/mL, test compound 30 minutes before
Experimental: Specifically, the heart removed from the rat according to the Langendorff's method was treated with an enzyme, and isolated myocardial cells were obtained. The myocardial cells were inoculated on a 48 multi-well plate (3548 Coster) previously coated with poly-L-lysine at a rate of 1×10^4 cells/well. The plate was kept at 37° C. for 1 hour while being exposed to a flow of gas comprising 95% O2 and 5% CO2, to allow the cells to adhere to the bottom of each well. Then, the test compound was added to each well, and allowed to be there for 30 minutes, and […] to each well to 100 μg/mL. Five minutes later, the cells of each well was checked for their morphological changes, and the changes were photographed. If the cells' shape changed from a rod-like one into a ball-like one in the presence of veratrine, the cells were regarded as falling to contracture as a result of the exposure to veratrine. The inhibitory effect of the test compound on the contracture was determined by the probit method, and was expressed in terms of IC50. Veratrine is a mixture of […] alkaloids. If veratrine is applied to isolated myocardial cells, the cells which take a rod-like shape in a normal state will fall to contracture, taking a ball-like shape. Veratrine, when applied to isolated myocardial cells, is thought to cause a persistent sodium current in the cells, by suppressing the inactivation of the sodium channel in the cells, which leads to the contracture of the cells (Donck et al., ibid).

[6] = system: Crj:CD(SD) IGS female rats; assay: Toxicological study, 14-day oral gavage; settings: 5 or 10 mg/kg/day orally once daily for 14 days
[7] = 10 min, first 10 minutes, read-out: Response inhibition, 1st phase
[8] = 0.75 h, 10 to 45 minutes, read-out: Response inhibition, 2nd phase

Compound: NC(=O)N1c2ccccc2C=Cc2ccccc21 [carbamazepine, reference compound]
Inhibition of the first-phase response ([1]; orally applied at 50 mg/kg): 52%
Inhibition of the second-phase response ([1]; orally applied at 50 mg/kg): 59%
pIC50 [2]: ≤ 3.52
Mean threshold, normal foot (right) ([3]; 50 mg/kg oral): 19.85 g
Mean threshold, test foot (left) ([3]; 50 mg/kg oral): 8.97 g
Mean threshold, normal foot (right) ([3]; 100 mg/kg oral): 27.13 g
Mean threshold, test foot (left) ([3]; 100 mg/kg oral): 19.43** g

Compound: CC(C)Oc1ccc(N(C)CCC2(O)CCN(CCc3ccc(C#N)cc3)CC2)cc1.Cl.Cl [Example 51, 1-[2-(4-cyanophenyl)ethyl]-4-[2-[N-methyl-N-(4-isopropoxyphenyl)amino]ethyl]piperidin-4-ol dihydrochloride]
Decrease of the peak value of the transient inward current [4]: 18%
inhibition in vivo at 10 mg/kg [1, 7]: 46%
inhibition in vivo at 10 mg/kg [1, 8]: 67%
pIC50 [5]: 5.81
pIC50 [2]: 6.21
Body weight [6]: no loss in the weight
General conditions [6]: no notable abnormalities in general conditions
Histopathological examination [6]: no abnormal findings were obtained
Survival during treatment period [6]: All the rats survived
Mean threshold, normal foot (right) ([3]; 2.5 mg/kg oral): 16.43 g
Mean threshold, test foot (left) ([3]; 2.5 mg/kg oral): 8.33 g
Mean threshold, normal foot (right) ([3]; 5 mg/kg oral): 16.43 g
Mean threshold, test foot (left) ([3]; 5 mg/kg oral): 12.63* g
Mean threshold, normal foot (right) ([3]; 10 mg/kg oral): 16.85 g
Mean threshold, test foot (left) ([3]; 10 mg/kg oral): 15.58** g

melting point: 202.6 to 203.9 °C
Compound: CC(C)Oc1ccc(N(C)CCC2(O)CCN(CCc3ccoc3)CC2)cc1.Cl.Cl [Example 84, 1-[2-(3-furyl)ethyl]-4-[2-[N-methyl-N-(4-isopropoxyphenyl)amino]ethyl]piperidin-4-ol dihydrochloride]
inhibition in vivo at 10 mg/kg [1, 7]: 23%
inhibition in vivo at 10 mg/kg [1, 8]: 49%

melting point: 214 to 215.2 °C
Compound: CCOc1ccc(N(C)CCC2(O)CCN(CCc3ccc(C#N)cc3)CC2)cc1.Cl.Cl [Example 90, 1-[2-(4-cyanophenyl)ethyl]-4-[2-[N-(4-ethoxyphenyl)-N-methylamino]ethyl]piperidin-4-ol dihydrochloride]
inhibition in vivo at 10 mg/kg [1, 7]: 55%
inhibition in vivo at 10 mg/kg [1, 8]: 65%

Compound: CC(C)Oc1ccc(N(C)CCC2(O)CCN(CCc3ccc(F)cc3)CC2)cc1.Cl.Cl [Example 55, 1-[2-(4-fluorophenyl)ethyl]-4-[2-[N-methyl-N-(4-isopropoxyphenyl)amino]ethyl]piperidin-4-ol dihydrochloride]
inhibition in vivo at 10 mg/kg [1, 7]: 30%
inhibition in vivo at 10 mg/kg [1, 8]: 55%
pIC50 [5]: 5.87
pIC50 [2]: 6.55
melting point: 252 °C (dec.)

pIC50 [5]: 5.78
melting point: 203 to 204.5 °C
Compound: CC(C)Oc1ccc(N(C)CCC2(O)CCN(CCc3cccs3)CC2)cc1.Cl.Cl [Example 86, 4-[2-[N-methyl-N-(4-isopropoxyphenyl)amino]ethyl]-1-[2-(2-thienyl)ethyl]piperidin-4-ol dihydrochloride]
inhibition in vivo at 10 mg/kg [1, 7]: 19%
inhibition in vivo at 10 mg/kg [1, 8]: 62%

Compound: CC(C)Oc1ccc(N(C)CCC2(O)CCN(CCc3cccc(F)c3)CC2)cc1 [Example 58, 1-[2-(3-fluorophenyl)ethyl]-4-[2-[N-methyl-N-(4-isopropoxyphenyl)amino]ethyl]piperidin-4-ol dihydrochloride]
inhibition in vivo at 10 mg/kg [1, 7]: 29%
inhibition in vivo at 10 mg/kg [1, 8]: 56%

Compound: CC(C)Oc1ccc(N(C)CCC2(O)CCN(CCc3ccccc3C(F)(F)F)CC2)cc1 [Example 65, 4-[2-[N-methyl-N-(4-isopropoxyphenyl)amino]ethyl]-1-[2-[2-(trifluoromethyl)phenyl]ethyl]piperidin-4-ol dihydrochloride]
inhibition in vivo at 10 mg/kg [1, 7]: 93%
inhibition in vivo at 10 mg/kg [1, 8]: 96%

melting point: 202.8 to 203.4 °C
Compound: CC(C)Oc1ccc(N(C)CC2(O)CCN(CCc3ccc(C#N)cc3)CC2)cc1.Cl.Cl [Example 96, 1-[2-(4-cyanophenyl)ethyl]-4-[N-methyl-N-(4-isopropoxyphenyl)aminomethyl]piperidin-4-ol dihydrochloride]
inhibition in vivo at 10 mg/kg [1, 7]: 74%
inhibition in vivo at 10 mg/kg [1, 8]: 69%

Compound: CC(C)Oc1ccc(N(C)CCC2(O)CCN(CCc3ccc([N+](=O)[O-])cc3)CC2)cc1 [Example 56, 4-[2-[N-methyl-N-(4-isopropoxyphenyl)amino]ethyl]-1-[2-(4-nitrophenyl)ethyl]piperidin-4-ol dihydrochloride]
inhibition in vivo at 10 mg/kg [1, 7]: 40%
inhibition in vivo at 10 mg/kg [1, 8]: 70%

Compound: Cc1cccc(C)c1OCC(C)N (centres unmarked) [mexiletine, reference compound]
pIC50 [2]: 4.77

melting point: 197.3 °C (dec.)
Compound: CC(C)Oc1ccc(NCCC2(O)CCN(CCc3ccc(C#N)cc3)CC2)cc1.Cl.Cl

Compound: O=C1NC(=O)C(c2ccccc2)(c2ccccc2)N1 [phenytoin, reference compound]
pIC50 [2]: 4.29

Compound: CC(C)Oc1ccc(N(C)CCC2(O)CCN(CCc3ccccc3)CC2)cc1.Cl.Cl [Example 50, 4-[2-[N-methyl-N-(4-isopropoxyphenyl)-amino]ethyl]-1-(2-phenylethyl)piperidin-4-ol dihydrochloride]
inhibition in vivo at 10 mg/kg [1, 7]: 44%
inhibition in vivo at 10 mg/kg [1, 8]: 64%
pIC50 [5]: 5.82
pIC50 [2]: 6.52
melting point: 189.7 to 192.6 °C

Compound: CC(C)Oc1ccc(N(C)CCC2(O)CCN(CCc3ccc(Cl)cc3)CC2)cc1 [Example 60, 1-[2-(4-chlorophenyl)ethyl]-4-[2-[N-methyl-N-(4-isopropoxyphenyl)amino]ethyl]piperidin-4-ol dihydrochloride]
inhibition in vivo at 10 mg/kg [1, 7]: 61%
inhibition in vivo at 10 mg/kg [1, 8]: 92%
